Measurements taken from patent publication US11571484B2, “Compositions that target tumor-associated macrophages and methods of use therefor” (Sanford Burnham Prebys Medical Discovery Institute, priority 2017, dated 2023).
Ends that are not written are not given here.

Legend:
[1] = system: peritoneal cells (CCR2+ macrophages) of 4T1 tumor-bearing mice; assay: Flow cytometry of FAM-peptide binding to peritoneal cells from 4T1 tumor mice; type: cell-based, mouse; conditions: anti-CD206 10 μg/mL
Description: A, Change in fluorescence anisotropy of FAM-UNO (dotted line) and FAM-UNO in DTT (solid line) while incubating with mouse recombinant CD206. B, Change in fluorescence anisotropy of FAM-CSPGAK with mouse recombinant CD206 (solid line) or with CD163 (dotted line) and of FAM-CPMTDNE (control) with CD206 (dashed line). C, FAM-UNO binds selectively to CCR2^+ macrophages collected from the peritoneal cavity of 4T1 tumor-bearing mice, as 94.3% of FAM^+ cells are CCR2^+ cells. The analysis was done gating for the FAM^+ population (left panel). In these 4T1 tumor bearing mice, 58% of peritoneal cells are macrophages, i.e. CCR2^+ cells (right panel). D, FAM-UNO binding to peritoneal cells is inhibited by preincubating with 10 µg/mL of anti-CD206, whereas the preincubation with anti CD206 antibody had no effect on FAM-LyP-1 binding. In panels A and D are shown representative graphs from three independent experiments. In panels c and d are shown results from three independent experiments (n=3 mice) and bars of panel D represents mean+SEM.
Peritoneal cells were extracted from Balb/c mice 2 weeks after inoculation of 10^6 cells orthotopically). Mice were anesthetized and intraperitoneally injected with 5 mL of PBS+1% BSA, the abdomen was massaged to detach macrophages and the peritoneal fluid was collected. This procedure typically yielded 5-9×10^6 cells. Cells were concentrated to 1 mL in the same peritoneal fluid. For FAM-peptide incubation, the peptides were incubated for 30 minutes at 4° C. For antibody incubation the cells were incubated with antibody for 1 h at 4° C. A647 Rat anti-CCR2 (Biolegend, CA, USA. Catalog number 150603) was incubated for 1 h at 4° C. at a dilution of 1/200. FAM-peptides were incubated at a concentration of 0.5 μg/mL, and Rat anti-CD206 (Bio-Rad, CA, USA. Product code MCA2235GA) was incubated at a concentration of 10 μg/mL. Binding of FAM-peptides was monitored with 488 nm channel and CCR2 labeling was assessed in the 647 nm channel using A647 Anti-CCR2 (Biolegend, CA, USA). After incubation of FAM-Peptides or antibodies, the cells were washed 3 times at 4° C. with PBS-Tby centrifugation at 250 g for 6 minutes, followed by flow cytometry analysis (Accuri, BD Biosciences, CA, USA).

[2] = biological target: T1, recombinant mouse macrophage mannose receptor rmMMR/CD206 (Mus musculus, UniProt Q61830); assay: Fluorescence anisotropy assay with mouse recombinant CD206; type: binding; conditions: 50 nM FAM peptide, 1 μM protein, 25 °C
T1 construct: purchased R&D Systems 2535-MM-050
T1 sequence (Q61830 20-1456): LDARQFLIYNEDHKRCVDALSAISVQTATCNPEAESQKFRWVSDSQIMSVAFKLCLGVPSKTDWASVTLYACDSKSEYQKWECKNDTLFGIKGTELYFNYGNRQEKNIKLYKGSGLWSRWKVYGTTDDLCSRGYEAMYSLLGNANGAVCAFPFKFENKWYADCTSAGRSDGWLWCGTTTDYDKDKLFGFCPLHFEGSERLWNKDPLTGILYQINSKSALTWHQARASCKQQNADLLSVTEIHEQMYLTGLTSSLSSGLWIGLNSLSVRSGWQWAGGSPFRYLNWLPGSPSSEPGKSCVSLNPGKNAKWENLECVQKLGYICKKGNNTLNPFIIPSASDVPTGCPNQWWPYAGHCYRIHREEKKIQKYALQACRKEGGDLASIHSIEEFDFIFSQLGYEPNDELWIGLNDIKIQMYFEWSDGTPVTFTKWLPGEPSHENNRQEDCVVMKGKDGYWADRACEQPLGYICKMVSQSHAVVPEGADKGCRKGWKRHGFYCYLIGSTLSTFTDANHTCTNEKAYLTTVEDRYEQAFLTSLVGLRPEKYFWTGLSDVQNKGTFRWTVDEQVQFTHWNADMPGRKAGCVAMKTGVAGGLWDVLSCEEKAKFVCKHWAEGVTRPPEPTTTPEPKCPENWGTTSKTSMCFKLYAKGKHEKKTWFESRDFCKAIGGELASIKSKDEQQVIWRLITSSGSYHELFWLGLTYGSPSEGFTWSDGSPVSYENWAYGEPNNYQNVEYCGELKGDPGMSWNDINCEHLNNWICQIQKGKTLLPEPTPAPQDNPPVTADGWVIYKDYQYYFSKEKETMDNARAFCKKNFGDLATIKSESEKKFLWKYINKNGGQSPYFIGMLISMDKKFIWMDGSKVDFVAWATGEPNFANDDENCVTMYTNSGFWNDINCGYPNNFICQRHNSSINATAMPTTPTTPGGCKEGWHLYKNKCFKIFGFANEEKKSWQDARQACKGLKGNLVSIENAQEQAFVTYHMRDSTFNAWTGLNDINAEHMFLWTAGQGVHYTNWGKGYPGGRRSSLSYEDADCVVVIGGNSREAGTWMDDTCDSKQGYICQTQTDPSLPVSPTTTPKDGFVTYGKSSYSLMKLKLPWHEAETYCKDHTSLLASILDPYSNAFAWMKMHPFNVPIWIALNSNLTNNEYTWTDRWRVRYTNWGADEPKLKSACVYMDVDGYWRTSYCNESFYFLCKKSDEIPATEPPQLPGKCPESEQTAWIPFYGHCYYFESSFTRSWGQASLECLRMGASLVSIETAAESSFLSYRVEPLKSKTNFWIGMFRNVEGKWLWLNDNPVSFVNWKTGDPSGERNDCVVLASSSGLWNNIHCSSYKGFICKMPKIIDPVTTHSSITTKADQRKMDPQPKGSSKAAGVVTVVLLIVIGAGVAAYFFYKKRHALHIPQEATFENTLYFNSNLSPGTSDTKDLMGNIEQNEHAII
Description: The stocks of fluorescent ligands (FAM-UNO, FAM-CSPGAK and FAM-CPMTDNE) in mQ water were stored at −20° C. […], 150 mM NaCl, 1 mM CaCl2, 0.1% Pluronic F-127, pH 7.4) on the day of experiment. The concentration of fluorescent ligands was determined by absorbance of FAM (E495=75000 M^−1 cm^−1).
The recombinant mouse macrophage mannose receptor rmMMR/CD206 (R&D Systems, catalog number: 2535-MM-050) and recombinant mouse CD163 (R&D Systems, catalog number: 7435-CD-050) were reconstituted at 1 mg/ml in IB, aliquoted and stored at −20° C. To generate linearized version of cyclic FAM-UNO peptide, the peptide at 1 mM concentration was preincubated for 24 h at room temperature in a dark place with 3 mM DTT and diluted with IB 2×10^5 times before the FA assay. The control experiment with FAM-CPMTDNE peptide (FIG. 22) was performed to rule out the possibility of disulphide bond formation, which could affect the binding properties of linear peptides. Initially, the peptide was preincubated in DMSO for 4 days at room temperature to enhance the disulphide bond formation, and then diluted in IB buffer with 3 mM DTT, and the disappearance of preformed dimer was observed as a change in FA signal.
In all experiments, FA signal measurements were done under pseudo first-order conditions with 50 nM singly labelled FAM peptides and 1 μM proteins. […] Assays were carried out in kinetic mode in a total volume of 30 μl at 25° C. on the PHERAstar (BMG Labtech, Germany) microplate reader using an optical module with excitation and emission filters of 485 nm (slit 10 nm) and 520 nm (slit 10 nm), respectively. Dual emission detection mode allows simultaneous recording of intensities that are parallel (l) and perpendicular (1) to the plane of excitation light. […] The background fluorescence (receptor and buffer components in the absence of fluorescent ligand) was subtracted independently from all intensity channels. FA signals at time t after initiation of binding reaction was calculated as parameters r(t) from the equation: […]

peritoneal macrophages = assay: In vivo phage display on peritoneal cells of 4T1 tumor-bearing versus normal mice; parameters: species or system mouse; conditions: phage-displayed peptide, peritoneal cells of 4T1 tumor mice
Description: A, Naive phage library was injected intraperitoneally in 4T1 tumor-bearing mice and age-matched normal mice, and allowed to circulate for two h. Peritoneal cells were collected, the accompanying phages were rescued and the peptide-encoding segment of phage DNA was sequenced. […] Peritoneal cells were extracted from the mice, seeded on coverslips, allowed to attach for 2 h, fixed, permeabilized, and stained for CD206. CD206+ cells were counted from 6 different confocal images, 2 from each mouse. C, Highly repeated sequences obtained from the first round of the biopanning experiment shown schematically in panel A. D, Frequency of phage clones encoding UNO or a randomly picked peptide (CIGVSSDC) divided by the total number of repeated sequences) in the 4T1 tumor-bearing and normal mice.
Ten days later, the 4T1 mouse and a Balb/c female mouse of the matched age, were injected with 500 μL of a 7×10^10 pfu/mL of purified CX7C long-circulating library that bears a mutation on the p17 protein of tail fiber^45. After 2 h the mice were anesthetized and peritoneal cells were collected, washed by centrifugation, and lysed by hand-held homogenizer in 2 mL of LB+NP40 1%. The phage was amplified in E. coli strain BLT5403 for high throughput sequencing of peptide encoding segment of the phage genomic DNA using Ion Torrent semiconductor sequencing system.
In vivo phage display was carried out on orthotopic breast cancer bearing mice as outlined in FIG. 1A. Compared to peritoneal cells of healthy mice, […] macrophages were ˜5-fold overrepresented in Balb/c mice bearing metastatic syngeneic 4T1 breast tumors (FIG. 1B). We hypothesized that a peptide that binds to peritoneal macrophages in tumor-bearing mice may also target M2-like TAMs. Mice with 4T1 tumors were injected intraperitoneally (i.p.) with a phage library expressing 9-amino acid cyclic CX7C peptides. After 2 h, peritoneal cells were collected, bound phages were rescued by amplification, and the resulting phage pool was subjected to high-throughput sequencing of the peptide-encoding segment of the phage genome. […]

FAM-LyP-1: FAM-labeled LyP-1 (CGNKRTRGC; SEQ ID NO: 4), peptide that targets cell surface p32 (not fully specified (N-terminus); cysteine pairing not given here) [reference compound]
reduction of binding to peritoneal cells by pre-incubation with anti-CD206 antibody [1]: no effect

FAM-CPMTDNE: FAM-labeled control peptide CPMTDNE (SEQ ID NO: 7) (not fully specified; FAM label) [reference compound]
change in fluorescence anisotropy (interaction) with mouse recombinant CD206 [2]: did not cause significant changes in anisotropy values

CGEKRTRGC [phage clone previously identified together with LyP-1]
representation among sequenced phage clones (peritoneal macrophages): second most abundant phage clone overrepresented in the cancer mice
